Results: article PMC9250534, “Synthesis and direct assay of large macrocycle diversities by combinatorial late-stage modification at picomole scale” (Nature Communications, 2022)
Numbered stars: 1 amine (or outer) side, 2 acyl side, 3 side chain; on linkers, the order of the positions; unused ones are H or OH. Bridge positions count the residues as written; N and C are the ends. Square brackets hold non-standard residues; d marks the D form. Peptide text beside a SMILES is read from it. * marks the point of attachment. 2Thenoyl(5-Cl) = O=C(c1ccc(Cl)s1)*; Benzoyl(4-Cl) = O=C(c1ccc(Cl)cc1)*; Cysteamide = C(CS[*:3])N[*:1]; X1 = O=C(/C=C/c1ccccc1)*; Api = NC1(C(=O)O)CCNCC1; Mpa = O=C(O)CCS

Molecular target: MDM2 (Homo sapiens, UniProt Q00987)
Assay: MDM2 binding screen: displacement of fluorescent p53 peptide probe FP53 (fluorescence polarization)
Conditions: for fraction fluorescent probe displaced, Screen: initial screen; for fraction fluorescent probe displaced, Screen / fraction fluorescent probe displaced, Replicate: crude macrocycle reactions
In short: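 Single-point screen: one fluorescence anisotropy reading at 25 °C (485 nm excitation, 535 nm emission) per macrocycle. Crude macrocycle reactions, final 10 µM, were scored for displacing the fluorescent p53 peptide from human MDM2.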

MDM2, sequence (Q00987 whole entry): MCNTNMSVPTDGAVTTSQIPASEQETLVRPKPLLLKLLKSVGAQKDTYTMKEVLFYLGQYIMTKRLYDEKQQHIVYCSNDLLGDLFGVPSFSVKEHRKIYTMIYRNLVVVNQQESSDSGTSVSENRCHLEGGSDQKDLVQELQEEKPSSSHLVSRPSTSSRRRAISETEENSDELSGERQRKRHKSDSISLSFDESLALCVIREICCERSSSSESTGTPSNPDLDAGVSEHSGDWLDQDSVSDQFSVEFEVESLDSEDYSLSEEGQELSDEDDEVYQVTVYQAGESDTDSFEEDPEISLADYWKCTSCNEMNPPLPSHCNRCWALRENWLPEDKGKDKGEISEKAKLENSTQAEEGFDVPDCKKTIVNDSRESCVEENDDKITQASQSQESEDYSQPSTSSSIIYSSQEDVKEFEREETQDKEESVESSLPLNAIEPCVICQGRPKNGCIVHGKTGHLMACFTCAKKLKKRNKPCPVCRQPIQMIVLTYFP

O=C1CCNC(=O)C2(CCN(C(=O)c3ccc(Cl)s3)CC2)NC(=O)CCSSCCNC(=O)[C@H](Cc2c[nH]c3ccccc23)N1 [X D6 B2 W Acid 14]
fraction fluorescent probe displaced, Screen (Acid 14): 0.17 | fraction fluorescent probe displaced, Replicate (Acid 14, replicate): 0.20

O=C1CCNC(=O)C2(CCN(C(=O)/C=C/c3ccccc3)CC2)NC(=O)CCSSCCNC(=O)[C@H](Cc2c[nH]c3ccccc23)N1 [X D6 B2 W Acid 91]
fraction fluorescent probe displaced, Screen (Acid 91): 0.19 | fraction fluorescent probe displaced, Replicate (Acid 91, replicate): 0.09

O=C1CCSSCCNC(=O)[C@H](Cc2ccccc2)NC(=O)[C@H]2CCCN(C2)C(=O)C2(CCN(C(=O)c3ccc(Cl)s3)CC2)N1 [X D6 B4 F + Acid 14]
fraction fluorescent probe displaced (crude reaction of macrocycle scaffold with Acid 14, (initial screen)): -0.00483 | fraction fluorescent probe displaced (crude reaction of macrocycle scaffold with Acid 14, replicate): 0.10

O=C1CCSSCCNC(=O)[C@H](Cc2ccccc2)NC(=O)[C@H]2CCCN(C2)C(=O)C2(CCN(C(=O)c3ccc(Cl)cc3)CC2)N1 [X D6 B4 F + Acid 25]
fraction fluorescent probe displaced (crude reaction of macrocycle scaffold with Acid 25, (initial screen)): 0.09 | fraction fluorescent probe displaced (crude reaction of macrocycle scaffold with Acid 25, replicate): 0.15

O=C1CCSSCCNC(=O)[C@H](Cc2c[nH]c3ccccc23)NC(=O)[C@H]2CCCN(C2)C(=O)C2(CCN(C(=O)c3ccc(Cl)s3)CC2)N1 [X D6 B4 W Acid 14]
fraction fluorescent probe displaced, Screen (Acid 14): 0.17 | fraction fluorescent probe displaced, Replicate (Acid 14, replicate): 0.25

O=C1CCSSCCNC(=O)C(Cc2c[nH]c3ccccc23)NC(=O)C2CCCN(C2)C(=O)C2(CCN(C(=O)C=Cc3ccccc3)CC2)N1 (stereo not drawn) [X D6 B4 W Acid 91]
fraction fluorescent probe displaced, Screen (Acid 91): 0.11 | fraction fluorescent probe displaced, Replicate (Acid 91, replicate): 0.0168

O=C1CCSSCCNC(=O)[C@H](Cc2ccccc2)NC(=O)c2cccc(c2)CNC(=O)C2(CCN(C(=O)/C=C/c3ccccc3)CC2)N1 [X D6 B5 F Acid 91]
fraction fluorescent probe displaced, Screen (Acid 91): -0.05 | fraction fluorescent probe displaced, Replicate (Acid 91, replicate): -0.0333

O=C1CCSSCCNC(=O)C(Cc2c[nH]c3ccccc23)NC(=O)c2cccc(c2)CNC(=O)C2(CCN(C(=O)c3ccc(Cl)s3)CC2)N1 (stereo not drawn) [X D6 B5 W Acid 14]
fraction fluorescent probe displaced, Screen (Acid 14): 0.23 | fraction fluorescent probe displaced, Replicate (Acid 14, replicate): 0.25

O=C1CCSSCCNC(=O)[C@H](Cc2c[nH]c3ccccc23)NC(=O)c2cccc(c2)CNC(=O)C2(CCN(C(=O)c3ccc(Cl)cc3)CC2)N1 [X D6 B5 W Acid 25]
fraction fluorescent probe displaced, Screen (Acid 25): 0.25 | fraction fluorescent probe displaced, Replicate (Acid 25, replicate): 0.22

O=C1CCSSCCNC(=O)[C@@H]2CCCN2C(=O)[C@H](Cc2ccccc2)NC(=O)C2(CCN(C(=O)c3ccc(Cl)s3)CC2)N1 [X D6 F B1 Acid 14] ([Mpa][Api](2Thenoyl(5-Cl))FP-Cysteamide; disulfide 1-C)
fraction fluorescent probe displaced, Screen (Acid 14): 0.053 | fraction fluorescent probe displaced, Replicate (Acid 14, replicate): 0.07

O=C1CCSSCCNC(=O)[C@@H]2CCCN2C(=O)[C@H](Cc2ccccc2)NC(=O)C2(CCN(C(=O)c3ccc(Cl)cc3)CC2)N1 [X D6 F B1 Acid 25] ([Mpa][Api](Benzoyl(4-Cl))FP-Cysteamide; disulfide 1-C)
fraction fluorescent probe displaced, Screen (Acid 25): 0.15 | fraction fluorescent probe displaced, Replicate (Acid 25, replicate): 0.22

O=C1CCSSCCNC(=O)[C@@H]2CCCN2C(=O)[C@H](Cc2ccccc2)NC(=O)C2(CCN(C(=O)/C=C/c3ccccc3)CC2)N1 [X D6 F B1 Acid 91] ([Mpa][Api](X1)FP-Cysteamide; disulfide 1-C)
fraction fluorescent probe displaced, Screen (Acid 91): -0.05 | fraction fluorescent probe displaced, Replicate (Acid 91, replicate): -0.08

O=C1CCNC(=O)[C@H](Cc2ccccc2)NC(=O)C2(CCN(C(=O)c3ccc(Cl)s3)CC2)NC(=O)CCSSCCN1 [X D6 F B2 Acid 14]
fraction fluorescent probe displaced, Screen (Acid 14): 0.0241 | fraction fluorescent probe displaced, Replicate (Acid 14, replicate): 0.07

O=C1CCNC(=O)[C@H](Cc2ccccc2)NC(=O)C2(CCN(C(=O)/C=C/c3ccccc3)CC2)NC(=O)CCSSCCN1 [X D6 F B2 Acid 91]
fraction fluorescent probe displaced, Screen (Acid 91): 0.14 | fraction fluorescent probe displaced, Replicate (Acid 91, replicate): 0.04

O=C1CCSSCCNC(=O)[C@H]2CCCN(C2)C(=O)[C@H](Cc2ccccc2)NC(=O)C2(CCN(C(=O)/C=C/c3ccccc3)CC2)N1 [X D6 F B4 + Acid 91]
fraction fluorescent probe displaced (crude reaction of macrocycle scaffold with Acid 91, (initial screen)): 0.03 | fraction fluorescent probe displaced (crude reaction of macrocycle scaffold with Acid 91, replicate): -0.00827

O=C1CCSSCCNC(=O)c2cccc(c2)CNC(=O)[C@H](Cc2ccccc2)NC(=O)C2(CCN(C(=O)c3ccc(Cl)s3)CC2)N1 [X D6 F B5 Acid 14]
fraction fluorescent probe displaced, Screen (Acid 14): -0.0337 | fraction fluorescent probe displaced, Replicate (Acid 14, replicate): 0.12

O=C1CCSSCCNC(=O)c2cccc(c2)CNC(=O)C(Cc2ccccc2)NC(=O)C2(CCN(C(=O)C=Cc3ccccc3)CC2)N1 (stereo not drawn) [X D6 F B5 Acid 91]
fraction fluorescent probe displaced, Screen (Acid 91): -0.05 | fraction fluorescent probe displaced, Replicate (Acid 91, replicate): -0.00827

O=C1CCSSCCNC(=O)[C@@H]2CCCN2C(=O)[C@H](Cc2c[nH]c3ccccc23)NC(=O)C2(CCN(C(=O)c3ccc(Cl)s3)CC2)N1 [X D6 W B1 Acid 14] ([Mpa][Api](2Thenoyl(5-Cl))WP-Cysteamide; disulfide 1-C)
fraction fluorescent probe displaced, Screen (Acid 14): 0.11 | fraction fluorescent probe displaced, Replicate (Acid 14, replicate): 0.07

O=C1CCSSCCNC(=O)[C@@H]2CCCN2C(=O)[C@H](Cc2c[nH]c3ccccc23)NC(=O)C2(CCN(C(=O)c3ccc(Cl)cc3)CC2)N1 [X D6 W B1 Acid 25] ([Mpa][Api](Benzoyl(4-Cl))WP-Cysteamide; disulfide 1-C)
fraction fluorescent probe displaced, Screen (Acid 25): 0.25 | fraction fluorescent probe displaced, Replicate (Acid 25, replicate): 0.20

O=C1CCSSCCNC(=O)[C@@H]2CCCN2C(=O)[C@H](Cc2c[nH]c3ccccc23)NC(=O)C2(CCN(C(=O)/C=C/c3ccccc3)CC2)N1 [X D6 W B1 Acid 91] ([Mpa][Api](X1)WP-Cysteamide; disulfide 1-C)
fraction fluorescent probe displaced, Screen (Acid 91): 0.08 | fraction fluorescent probe displaced, Replicate (Acid 91, replicate): 0.04

O=C1CCNC(=O)[C@H](Cc2c[nH]c3ccccc23)NC(=O)C2(CCN(C(=O)c3ccc(Cl)cc3)CC2)NC(=O)CCSSCCN1 [X D6 W B2 Acid 25]
fraction fluorescent probe displaced, Screen (Acid 25): 0.09 | fraction fluorescent probe displaced, Replicate (Acid 25, replicate): 0.10

O=C1CCNC(=O)[C@H](Cc2c[nH]c3ccccc23)NC(=O)C2(CCN(C(=O)/C=C/c3ccccc3)CC2)NC(=O)CCSSCCN1 [X D6 W B2 Acid 91]
fraction fluorescent probe displaced, Screen (Acid 91): 0.14 | fraction fluorescent probe displaced, Replicate (Acid 91, replicate): 0.07

O=C1CCSSCCNC(=O)[C@H]2CCCN(C2)C(=O)[C@H](Cc2c[nH]c3ccccc23)NC(=O)C2(CCN(C(=O)c3ccc(Cl)cc3)CC2)N1 [X D6 W B4 Acid 25]
fraction fluorescent probe displaced, Screen (Acid 25): 0.28 | fraction fluorescent probe displaced, Replicate (Acid 25, replicate): 0.22

O=C1CCSSCCNC(=O)[C@H]2CCCN(C2)C(=O)[C@H](Cc2c[nH]c3ccccc23)NC(=O)C2(CCN(C(=O)/C=C/c3ccccc3)CC2)N1 [X D6 W B4 Acid 91]
fraction fluorescent probe displaced, Screen (Acid 91): 0.14 | fraction fluorescent probe displaced, Replicate (Acid 91, replicate): 0.07
